Test results from paper PMC10133546, “Simultaneous determination of multiple components in rat plasma by UHPLC-sMRM for pharmacokinetic studies after oral administration of Qingjin Yiqi Granules” (Frontiers in Pharmacology, 2023).

Tests used:
[1] = Stability of the working solution (4°C for 1 month); type: physicochemical
[2] = Stability of analytes in rat plasma (auto-sampler, freeze-thaw, room temperature, long-term); conditions: for Room temperature for 24 h Accuracy (%): room temperature 24 h; for Autosampler for 24 h Accuracy (%): autosampler 24 h; for Freeze thaw cycles Accuracy (%): three freeze-thaw cycles

SMILES	Working solution Accuracy (%) ([1]; 50 ng/mL)	Working solution Accuracy (%) ([1]; 100 ng/mL)	Working solution Accuracy (%) ([1]; 500 ng/mL)	Room temperature for 24 h Accuracy (%) ([2]; 50 ng/mL)	−80°C for 1month Accuracy (%) ([2]; 50 ng/mL, −80°C 1 month)	Autosampler for 24 h Accuracy (%) ([2]; 100 ng/mL)	Room temperature for 24 h Accuracy (%) ([2]; 100 ng/mL)	Freeze thaw cycles Accuracy (%) ([2]; 100 ng/mL)	−80°C for 1month Accuracy (%) ([2]; 100 ng/mL, −80°C 1 month)	Autosampler for 24 h Accuracy (%) ([2]; 500 ng/mL)	Room temperature for 24 h Accuracy (%) ([2]; 500 ng/mL)	Freeze thaw cycles Accuracy (%) ([2]; 500 ng/mL)	−80°C for 1month Accuracy (%) ([2]; 500 ng/mL, −80°C 1 month)	Working solution Accuracy (%) ([1]; 12.5 ng/mL)	Autosampler for 24 h Accuracy (%) ([2]; 12.5 ng/mL)	Room temperature for 24 h Accuracy (%) ([2]; 12.5 ng/mL)	Freeze thaw cycles Accuracy (%) ([2]; 12.5 ng/mL)	−80°C for 1month Accuracy (%) ([2]; 12.5 ng/mL, −80°C 1 month)	Autosampler for 24 h Accuracy (%) ([2]; 50 ng/mL)	Freeze thaw cycles Accuracy (%) ([2]; 50 ng/mL)	other results
O=C(O)[C@H]1O[C@@H](Oc2cc3oc(-c4ccc(O)cc4)cc(=O)c3c(O)c2O)[C@H](O)[C@@H](O)[C@@H]1O [scutellarin]	97.2	108.0	100.0	91.2	92.2	109.0	101.0	111.0	101.0	101.0	105.0	112.0	103.0	–	–	–	–	–	–	–	Working solution Accuracy (%) ([1]; 200 ng/mL): 99.4%; Autosampler for 24 h Accuracy (%) ([2]; 200 ng/mL): 94.7%; Room temperature for 24 h Accuracy (%) ([2]; 200 ng/mL): 90.6%; Freeze thaw cycles Accuracy (%) ([2]; 200 ng/mL): 85.4%; −80°C for 1month Accuracy (%) ([2]; 200 ng/mL, −80°C 1 month): 90.4%
O=C(/C=C/c1ccc(O)c(O)c1)O[C@H]1[C@H](O)C[C@](O)(C(=O)O)C[C@H]1O [cryptochlorogenic acid]	95.0	94.6	96.8	91.2	107.0	92.7	–	88.9	110.0	109.0	100.0	98.7	104.0	87.6	94.6	90.6	84.5	90.6	93.1	86.6	–
CC(C)(O[C@@H]1O[C@H](CO)[C@@H](O)[C@H](O)[C@H]1O)[C@@H]1CC[C@](O)(CO)[C@H]2CC(=O)[C@@](C)(O)[C@@H]2C1 [atractyloside A]	88.5	104.0	97.2	97.6	89.7	94.4	104.0	–	96.2	103.0	91.2	–	92.2	–	–	–	–	–	107.0	84.6	Working solution Accuracy (%) ([1]; 200 ng/mL): 87.0%; Autosampler for 24 h Accuracy (%) ([2]; 200 ng/mL): 91.5%; Room temperature for 24 h Accuracy (%) ([2]; 200 ng/mL): 89.9%; Freeze thaw cycles Accuracy (%) ([2]; 200 ng/mL): 97.0%; −80°C for 1month Accuracy (%) ([2]; 200 ng/mL, −80°C 1 month): 93.4%
CC(C)=CCC[C@](C)(O)[C@H]1CC[C@]2(C)[C@@H]1[C@H](O)C[C@@H]1[C@@]3(C)CC[C@H](O)C(C)(C)[C@@H]3[C@@H](O[C@@H]3O[C@H](CO)[C@@H](O)[C@H](O)[C@H]3O)C[C@]12C [ginsenoside Rh1]	106.0	95.1	–	100.0	107.0	90.8	96.5	100.0	93.5	–	–	–	–	–	–	–	–	–	86.5	–	Autosampler for 24 h Accuracy (%) ([2]; concentration 200 ng/mL): 96.5%; Autosampler for 24 h Accuracy (%) ([2]; concentration 500 ng/mL): 108.0%; Room temperature for 24 h Accuracy (%) ([2]; concentration 500 ng/mL): 98.7%; Freeze thaw cycles Accuracy (%) ([2]; concentration 500 ng/mL): 94.1%; −80°C for 1month Accuracy (%) ([2]; −80°C for 1 month, concentration 500 ng/mL): 114.0%
O=c1c(O[C@@H]2O[C@H](CO)[C@H](O)[C@H](O)[C@H]2O)c(-c2ccc(O)c(O)c2)oc2cc(O)cc(O)c12 [hyperoside]	–	91.2	95.0	–	–	90.5	95.4	93.5	88.8	95.8	99.1	95.3	–	92.1	101.0	–	98.4	100.0	–	–	Autosampler for 24 h Accuracy (%) ([2]; 1.56 ng/mL): 111.0%; Room temperature for 24 h Accuracy (%) ([2]; 1.56 ng/mL): 91.6%; Freeze thaw cycles Accuracy (%) ([2]; 1.56 ng/mL): 97.6%; −80°C for 1month Accuracy (%) ([2]; 1.56 ng/mL, −80°C 1 month): 106.0%
O=C(/C=C/c1ccc(O[C@@H]2O[C@H](CO)[C@@H](O)[C@H](O)[C@H]2O)cc1)c1ccc(O)cc1O [isoliquiritin]	–	–	93.3	–	–	107.0	96.6	94.5	106.0	96.3	96.7	91.6	95.0	110.0	108.0	87.5	90.9	–	–	–	Working solution Accuracy (%) ([1]; 1.56 ng/mL): 106.0%; Autosampler for 24 h Accuracy (%) ([2]; 1.56 ng/mL): 99.3%; Room temperature for 24 h Accuracy (%) ([2]; 1.56 ng/mL): 88.9%; Freeze thaw cycles Accuracy (%) ([2]; 1.56 ng/mL): 95.5%; −80°C for 1month Accuracy (%) ([2]; 1.56 ng/mL, −80°C 1 month): 83.8%
O=C1C[C@@H](c2ccc(O)cc2)Oc2cc(O)cc(O)c21 [naringenin]	102.0	85.6	98.2	–	98.2	99.5	92.9	–	97.4	107.0	95.2	–	94.2	93.5	–	94.4	97.6	85.7	98.3	–	–
CC(C)=CCC[C@](C)(O)[C@H]1CC[C@]2(C)[C@@H]1[C@H](O)C[C@@H]1[C@@]3(C)CC[C@H](O)C(C)(C)[C@@H]3[C@@H](O[C@@H]3O[C@H](CO)[C@@H](O)[C@H](O)[C@H]3O[C@@H]3O[C@H](CO)[C@@H](O)[C@H](O)[C@H]3O)C[C@]12C [ginsenoside Rf]	94.9	110.0	102.0	–	89.6	88.2	96.8	89.7	–	–	113.0	–	112.0	91.9	112.0	96.1	97.2	97.1	98.9	88.0	–
